# Laboratory results published in US8173428B2, “LNA oligonucleotides and the treatment of cancer” (Santaris Pharma A/S, priority 2004, dated 2012).
# Oligonucleotides are written 5' to 3', each unit as a sugar letter and its base; * is a phosphorothioate linkage, no mark a phosphodiester; rarer units and linkages stand in square brackets, end groups in braces. Plain capitals give the bases only. l = locked nucleic acid (LNA); [5mC] = 5-methylcytosine; d = 2'-deoxy (DNA)
# Key:
# Bcl-2 mRNA = Bcl-2 mRNA expression by real-time PCR in 15PC3 cells; format: cell-based, human
# Experimental: To determine the relative Survivin mRNA level in oligonucleotide treated and untreated cells, the generated cDNA was used in quantitative PCR analysis using an iCycler from BioRad. The cDNA was diluted 5-fold and 8 μl was mixed with 52 μl Taqman probe master mix containing 30 μl Platinum Quantitative PCR SuperMix UDG 2×PCR master mix (Invitrogen), 3 μl 20× Taqman probe and primer mix (forward primer: 5′[…] (SEQ ID NO:29), final 0.9 μM. Reverse primer: 5′[…] (SEQ ID NO:30), final 0.6 μM and taqman probe: FAM-[…]-TAMRA (SEQ ID NO:31), final 0.1 μM) and 19 μl H2O. The 60 μl were dispersed in two wells (96 well plates) with 25 μl in each well. For human Bcl-2 the PCR primers were:
# forward primer: 5′ […] 3′ (final concentration in the assay; 0.6 μM) (SEQ ID NO: 32) reverse primer: 5′ […] 3′ (final concentration in the assay; 0.6 μM) (SEQ ID NO: 33) and the PCR probe was: 5′ FAM-[…]-TAMRA 3′ (final concentration in the assay; 0.1 μM) (SEQ ID NO: 34). […]
# The primers and probe were obtained from […] (France). To normalize any variance in sample preparation, the endogenous GAPDH mRNA was quantified using a pre-developed Taqman assay reagent from Applied Biosystems (4310884E) according to manufacturer's Instructions. […] Relative quantities of Survivin mRNA were determined from the calculated threshold cycle using the iCycler IQ Real Time Detection System software.
# Survivin protein = assay: Tumour analysis: Survivin protein by Western blotting after intratumoural injection; format: in vivo, Balb/cA-nu mice; conditions: 25 mg/kg intratumoral, 6 times over 2 weeks, sampling 24 hours after last dose, versus saline
# Experimental: Model: PC-3 human prostate cancer cells (ECACC) are mixed with Matrigel and injected s.c. into both flanks of female Balb/cA-nu mice on Day 0.
# Administration: Oligonucleotides i.p. (see FIG. 8) or intratumoural (see FIG. 9), Taxol i.v., all according to schedule
# cDNA synthesis: First strand synthesis was performed using OmniScript Reverse Transcriptase kit according to the manufacturer's instructions (Qiagen). […] Protein levels were analysed on individual tumours by western blotting (see FIG. 9). Real time PCR analysis: To determine the relative Survivin mRNA level treated and untreated tumours, the generated cDNA was used in quantitative PCR analysis using an iCycler from BioRad. The cDNA was diluted 5-fold and 8 μl was mixed with 52 μl Taqman probe master mix containing 30 μl Platinum Quantitative PCR SuperMix UDG 2×PCR master mix (Invitrogen), 3 μl 20× Taqman probe and primer mix (forward primer: 5′-[…]-3′ (SEQ ID NO. 29), final 0.9 μM. Reverse primer: 5′-[…]-3′ (SEQ ID NO. 30), final 0.6 μM and taqman probe: FAM-5′-[…]-TAMRA-3′ (SEQ ID NO. 31), final 0.1 μM) and 19 μl H2O. […] To normalize any variance in sample preparation, the endogenous GAPDH mRNA was quantified using a pre-developed Taqman assay reagent from Applied Biosystems (4310884E) according to manufacture's instructions. […] Total protein concentrations were measured using a BCA protein assay kit (Pierce). […]
substance,measurement,setting,value
5′-^MeCsTs^MeCsAsastscscsastsgsgs^MeCsAsGsc-3′ (l[5mC]*lT*l[5mC]*lA*dA*dT*dC*dC*dA*dT*dG*dG*l[5mC]*lA*lG*dC) [SEQ ID NO. 2],Bcl-2 mRNA expression,"Bcl-2 mRNA; 10 nM, 24 hours, 15PC3 cells, single agent or combined with control oligonucleotides",have effects on Survivin and Bcl-2 expression
same,Bcl-2 down-regulation,"Bcl-2 mRNA; summary statement, conditions not given",down-regulation of Bcl-2
same,Survivin protein level in tumours,Survivin protein,reduced levels of both mRNA and Survivin protein
